Our source for the Ki values is patent US7598255B2 (Janssen Pharmaceutica NV, priority 2005, dated 2009).

The target in one experiment is 5-HT2B receptor (Homo sapiens, UniProt P41595). The experiment can be described thus: Affinity for 5HT2 receptor binding sites, h5-HT2B, [3H]mesulergine. The settings on record: CHO h5-HT2B membranes.
The next experiment addresses 5-HT2A receptor (Homo sapiens, UniProt P28223). The experiment can be described thus: Affinity for 5-HT2A receptor binding sites, radioligand binding with [3H]ketanserin. Conditions: read-out: Ki 5-HT2A, rat cortex membranes (assay 2) or NIH3T3 h5-HT2A membranes (assay 3), table does not say which.
The target of experiment [1] is T1, human recombinant 5-HT2C receptor (Homo sapiens, UniProt P28335).
T1 sequence (P28335 33-458): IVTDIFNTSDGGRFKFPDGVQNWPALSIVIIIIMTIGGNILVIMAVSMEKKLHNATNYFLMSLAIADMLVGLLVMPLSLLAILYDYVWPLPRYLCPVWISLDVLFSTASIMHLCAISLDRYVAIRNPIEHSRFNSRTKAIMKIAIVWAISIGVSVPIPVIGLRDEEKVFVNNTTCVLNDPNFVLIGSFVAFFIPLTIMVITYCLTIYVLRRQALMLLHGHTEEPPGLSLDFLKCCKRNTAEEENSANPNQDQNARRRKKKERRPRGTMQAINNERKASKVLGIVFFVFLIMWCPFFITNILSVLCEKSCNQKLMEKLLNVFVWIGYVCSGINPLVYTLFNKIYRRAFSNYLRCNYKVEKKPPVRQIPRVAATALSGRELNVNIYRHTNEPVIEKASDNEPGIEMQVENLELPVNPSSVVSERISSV
The experiment can be described thus: Affinity for 5HT2 receptor binding sites, h5-HT2C, [3H]mesulergine. Conditions: CHO h5-HT2C membranes.
Procedure: (§1) Sigmoidal inhibition curves were generated and fitted by nonlinear regression analysis (GraphPad Prism).
Receptor binding was performed using the human recombinant 5-HT2A (GB: X57830), 5-HT2B (GB: Z36748) and 5-HT2C (GB: M81778) receptors. The affinity of the compounds for the 3 different human 5-HT2 receptor subtypes was evaluated by competitive radioligand binding assays using [^3H]ketanserin (h5-HT2A) or [^3H]mesulergine (h5-HT2B and h5-HT2C). The assays were performed on membranes prepared from NIH3T3 stably transfected with h5-HT2A or CHO stably transfected with h5-HT2B and h5-HT2C.

In another experiment the target is rat 5-HT7a receptor (Rattus norvegicus, UniProt P32305). The experiment can be described thus: Affinity for 5-HT7 receptor binding sites, radioligand binding with [3H]5-CT. The settings on record: membranes of HEK-293 cells with rat 5-HT7a, 1 nM [3H]5-CT. An outline of the steps:
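Competition binding on membranes from HEK-293 cells stably expressing rat 5-HT7a, 135 μg protein/mL in 50 mM Tris-HCl pH 7.5, 5 mM EDTA. Incubated 60 min at RT with 1 nM [3H]5-CT and increasing compound concentrations; nonspecific binding with 10 μM 5-HT. Filtration and scintillation counting, in triplicate.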

What is called pKi is the negative decadic logarithm of the Ki, by convention in mol/L.

pKi: −log10 of the molar value. Where a name gives a salt, the structure may show the parent alone.

rat 5-HT7a receptor, sequence (P32305 whole entry): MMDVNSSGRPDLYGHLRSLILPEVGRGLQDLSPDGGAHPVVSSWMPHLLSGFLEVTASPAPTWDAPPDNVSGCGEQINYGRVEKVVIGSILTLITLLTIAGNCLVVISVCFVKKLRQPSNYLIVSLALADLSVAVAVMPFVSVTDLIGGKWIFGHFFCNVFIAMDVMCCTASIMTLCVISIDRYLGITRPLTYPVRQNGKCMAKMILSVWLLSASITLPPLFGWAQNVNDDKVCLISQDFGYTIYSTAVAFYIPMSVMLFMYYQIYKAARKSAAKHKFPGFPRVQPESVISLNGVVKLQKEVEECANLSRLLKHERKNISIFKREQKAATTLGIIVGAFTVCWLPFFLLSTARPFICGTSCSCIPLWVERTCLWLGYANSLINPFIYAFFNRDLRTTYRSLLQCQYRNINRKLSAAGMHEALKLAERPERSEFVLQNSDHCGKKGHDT
5-HT2B receptor, sequence (P41595 whole entry): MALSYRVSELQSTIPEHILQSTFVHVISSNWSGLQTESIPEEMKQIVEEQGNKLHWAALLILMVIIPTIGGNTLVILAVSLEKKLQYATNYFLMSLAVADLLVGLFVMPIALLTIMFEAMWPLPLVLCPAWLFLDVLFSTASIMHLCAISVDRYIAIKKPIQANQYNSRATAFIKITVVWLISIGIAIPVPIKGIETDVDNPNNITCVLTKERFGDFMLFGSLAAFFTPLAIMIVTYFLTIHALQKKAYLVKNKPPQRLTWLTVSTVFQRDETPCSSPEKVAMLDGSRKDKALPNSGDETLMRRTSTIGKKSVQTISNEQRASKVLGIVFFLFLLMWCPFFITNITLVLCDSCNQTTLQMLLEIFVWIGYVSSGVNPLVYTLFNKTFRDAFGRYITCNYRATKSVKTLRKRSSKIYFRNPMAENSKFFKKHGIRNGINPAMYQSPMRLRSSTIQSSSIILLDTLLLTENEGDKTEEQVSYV
Procedure for 5-HT2A receptor: as §1
The affinity of the compounds for the rat 5-HT2A receptor was evaluated by competitive radioligand binding assay using [^3H]ketanserine as the radioligand. […] Brain tissue (rat cortex) was homogenized in 20 volumes per wet weight tissue of Tris-HCl buffer (50 mM, pH 7.4). The total membrane fraction was collected by centrifugation and washed by subsequent centrifugation runs (25 min at 25,000 g at 4° C.). Membranes were re-suspended in Tris-HCl buffer (50 mM, pH 7.4) containing 1 nM [^3H]ketanserin. Non-specific binding was estimated in the presence of 10 μM risperidone. The incubation was terminated by rapid filtration over Whatman GF/B filters pre-soaked in 0.1% polyethylenimine, and one washing step with 1 mL ice-cold Tris-HCl buffer, pH 7.4.

Regarding `Cc1ccc(-c2nc(C(C)C)nc3c2CN(Cc2ccccc2)CC3C)cc1` (stereo not drawn) [Example 94, 6-Benzyl-2-isopropyl-8-methyl-4-p-tolyl-5,6,7,8-tetrahydro-pyrido[4,3-d]pyrimidine], the pKi (on 5-HT2B receptor; on 5-HT2A receptor; in experiment [1]; on rat 5-HT7a receptor) was less than 5.00 each time.

For `CC(C)c1nc(-c2ccccc2)c2c(n1)C(C)CN(Cc1ccccc1)C2` (stereo not drawn) [Example 95, 6-Benzyl-2-isopropyl-8-methyl-4-phenyl-5,6,7,8-tetrahydro-pyrido[4,3-d]pyrimidine], the pKi at 5-HT2B receptor is less than 5.00; at 5-HT2A receptor, 5.70; in experiment [1], less than 5.00; on rat 5-HT7a receptor it was less than 5.00.

Consider `CC(C)c1nc(-c2ccc(C(F)(F)F)cc2)c2c(n1)C(C)CN(Cc1ccccc1)C2` (stereo not drawn) [Example 96, 6-Benzyl-2-isopropyl-8-methyl-4-(4-trifluoromethyl-phenyl)-5,6,7,8-tetrahydro-pyrido[4,3-d]pyrimidine], for which the negative-log Ki (pKi) (at 5-HT2B receptor; at 5-HT2A receptor; in experiment [1]; at rat 5-HT7a receptor) was less than 5.00 throughout.

`CC(C)c1nc(-c2ccc(Cl)cc2)c2c(n1)C(C)CN(Cc1ccccc1)C2` (stereo not drawn) [Example 97, 6-Benzyl-4-(4-chloro-phenyl)-2-isopropyl-8-methyl-5,6,7,8-tetrahydro-pyrido[4,3-d]pyrimidine]: the pKi (on 5-HT2B receptor; at 5-HT2A receptor; in experiment [1]; at rat 5-HT7a receptor) was less than 5.00 throughout.

`CC(C)c1nc(-c2ccsc2)c2c(n1)C(C)CN(Cc1ccccc1)C2` (stereo not drawn) [Example 98, 6-Benzyl-2-isopropyl-8-methyl-4-thiophen-3-yl-5,6,7,8-tetrahydro-pyrido[4,3-d]pyrimidine]: the pKi (on 5-HT2B receptor; at 5-HT2A receptor; in experiment [1]; at rat 5-HT7a receptor) was less than 5.00 in each case.

For the compound `CC(C)c1nc(-c2ccc(-c3ccc(Cl)cc3)cc2)c2c(n1)C(C)CN(Cc1ccccc1)C2` (stereo not drawn) [Example 99, 6-Benzyl-4-(4′-chloro-biphenyl-4-yl)-2-isopropyl-8-methyl-5,6,7,8-tetrahydro-pyrido[4,3-d]pyrimidine], the pKi (at 5-HT2B receptor; at 5-HT2A receptor; in experiment [1]; at rat 5-HT7a receptor) was less than 5.00 throughout.

`CC(C)c1nc(-c2ccc(F)c(Cl)c2)c2c(n1)C(C)CNC2` (stereo not drawn) [Example 101, 4-(3-Chloro-4-fluoro-phenyl)-2-isopropyl-8-methyl-5,6,7,8-tetrahydro-pyrido[4,3-d]pyrimidine hydrochloride]: the negative logarithm of the Ki (pKi) on 5-HT2B receptor is less than 5.00; at 5-HT2A receptor, 6.40; in experiment [1], less than 5.00; on rat 5-HT7a receptor it was less than 5.00.

As to `CC(C)c1nc(-c2ccccc2)c2c(n1)C(C)CNC2` (stereo not drawn) [Example 103, 2-Isopropyl-8-methyl-4-phenyl-5,6,7,8-tetrahydro-pyrido[4,3-d]pyrimidine], the pKi is 6.00 at 5-HT2B receptor, 7.40 on 5-HT2A receptor, 6.00 in experiment [1] and less than 5.00 at rat 5-HT7a receptor.

As for `CC(C)c1nc(-c2ccc(C(F)(F)F)cc2)c2c(n1)C(C)CNC2` (stereo not drawn) [Example 104, 2-Isopropyl-8-methyl-4-(4-trifluoromethyl-phenyl)-5,6,7,8-tetrahydro-pyrido[4,3-d]pyrimidine], the pKi is 6.30 on 5-HT2B receptor, 6.15 on 5-HT2A receptor, 5.52 in experiment [1] and less than 5.00 on rat 5-HT7a receptor.

As for `CC(C)c1nc(-c2ccsc2)c2c(n1)C(C)CNC2` (stereo not drawn) [Example 105, 2-Isopropyl-8-methyl-4-thiophen-3-yl-5,6,7,8-tetrahydro-pyrido[4,3-d]pyrimidine], the pKi at 5-HT2B receptor was 7.00; at 5-HT2A receptor, 7.40; in experiment [1] it was 6.40; on rat 5-HT7a receptor it was less than 5.00.

With `CC(C)c1nc2c(c(-c3ccc(F)cc3)n1)CN(Cc1ccccc1)C2` [Example 106, hydrochloride], the pKi on 5-HT2B receptor is 5.20; at 5-HT2A receptor, 7.05; in experiment [1], less than 5.00; on rat 5-HT7a receptor, less than 5.00.

Consider `CNC1CCc2c(nc(C(C)C)nc2-c2ccc(F)cc2)C1` (stereo not drawn) [Example 108, [4-(4-Fluoro-phenyl)-2-isopropyl-5,6,7,8-tetrahydro-quinazolin-7-yl]-methyl-amine hydrochloride], for which the negative logarithm of the Ki (pKi) is 7.38 at 5-HT2B receptor, 7.74 on 5-HT2A receptor, 6.00 in experiment [1] and less than 5.00 at rat 5-HT7a receptor.

In the case of `CC(C)c1nc2c(c(-c3ccc(F)cc3)n1)CCC(O)C2` (stereo not drawn) [Example 110, 4-(4-Fluoro-phenyl)-2-isopropyl-5,6,7,8-tetrahydro-quinazolin-7-ol], the pKi was 5.92 at 5-HT2B receptor, 6.66 on 5-HT2A receptor, 5.40 in experiment [1] and less than 5.00 at rat 5-HT7a receptor.

As for `CC(C)c1nc2c(c(-c3ccc(F)cc3)n1)CCCC2` [Example 111, 4-(4-Fluoro-phenyl)-2-isopropyl-5,6,7,8-tetrahydro-quinazoline], the pKi was 5.46 at 5-HT2B receptor, 6.52 on 5-HT2A receptor, less than 5.00 in experiment [1] and less than 5.00 on rat 5-HT7a receptor.

For the compound `Cc1ccc(-c2cc(CN(C)C)nc(Cc3ccccc3)n2)cc1` [Example 112, (2-Benzyl-6-p-tolyl-pyrimidin-4-ylmethyl)-dimethyl-amine], the pKi on 5-HT2B receptor was less than 5.00; on 5-HT2A receptor it was 6.89; in experiment [1], less than 5.00; on rat 5-HT7a receptor, less than 5.00.

`Cc1ccc(-c2cc(CN3CCN(C)CC3)nc(Cc3ccccc3)n2)cc1` [Example 113, 2-Benzyl-4-(4-methyl-piperazin-1-ylmethyl)-6-p-tolyl-pyrimidine]: the pKi was less than 5.00 at 5-HT2B receptor, 6.19 at 5-HT2A receptor, less than 5.00 in experiment [1] and less than 5.00 at rat 5-HT7a receptor.

Turning to `CNCc1cc(-c2ccc(F)cc2)nc(C(C)C)n1` [Example 114, [6-(4-Fluoro-phenyl)-2-isopropyl-pyrimidin-4-ylmethyl]-methyl-amine], the pKi is 6.52 on 5-HT2B receptor, 7.46 on 5-HT2A receptor, 6.00 in experiment [1] and less than 5.00 at rat 5-HT7a receptor.

As for `Cc1ccc(-c2cc(CCN)nc(Cc3ccccc3)n2)cc1` [Example 115, 2-(2-Benzyl-6-p-tolyl-pyrimidin-4-yl)-ethylamine], the pKi on 5-HT2B receptor was 5.30; on 5-HT2A receptor, 6.00; in experiment [1], less than 5.00; at rat 5-HT7a receptor, 5.30.

For the compound `Cc1ccc(-c2nc(Cc3ccc(F)cc3)ncc2CN(C)C)cc1` [Example 116, [2-(4-Fluoro-benzyl)-4-p-tolyl-pyrimidin-5-ylmethyl]-dimethyl-amine], the pKi was less than 5.00 at 5-HT2B receptor, 5.70 on 5-HT2A receptor, less than 5.00 in experiment [1] and less than 5.00 on rat 5-HT7a receptor.

Take `Fc1ccc(-c2nc(-c3ccccc3)nc3c2CNCC3)cc1` [Example 117, 4-(4-Fluoro-phenyl)-2-phenyl-5,6,7,8-tetrahydro-pyrido[4,3-d]pyrimidine]: the pKi is 6.00 on 5-HT2B receptor, 7.30 at 5-HT2A receptor, 5.40 in experiment [1] and less than 5.00 on rat 5-HT7a receptor.

For the compound `CN(C)CCc1cc(-c2ccc(F)cc2)nc(C(C)(C)C)n1` [Example 167, {2-[2-tert-Butyl-6-(4-fluoro-phenyl)-pyrimidin-4-yl]-ethyl}-dimethyl-amine], the pKi is 7.85 at 5-HT2B receptor, 8.15 at 5-HT2A receptor, 6.70 in experiment [1] and 6.35 at rat 5-HT7a receptor.
